Here are results for three compounds from ChEMBL document CHEMBL2157926, “Peptoid ligands that bind selectively to phosphoproteins” (Bioorg Med Chem Lett, 2011).

Activity calls are given as the source filed them. No cut-off for these calls is given here. Non-standard residues stand in square brackets, D forms with d. Residues, ends and D or L forms follow the SMILES beside them. Gly(N-(CH2)3N-pyrrolidone) = O=C(O)CNCCCN1CCCC1=O; N(4-hydroxyphenethyl)Gly = O=C(O)CNCCc1ccc(O)cc1; NFurfurylGly = O=C(O)CNCc1ccco1; Nleu = CC(C)CNCC(=O)O; Nlys = NCCCCNCC(=O)O; Nme = COCCNCC(=O)O

The target in assay [1] is T1, Bromodomain-containing protein 4 (Homo sapiens, UniProt O60885). Put plainly: Binding affinity to modified phosphorylated human BRD4 phosphorylation-dependent interaction domain (287-530) expressed in Sf9 cells assessed as formation of cross-linking products in presence of sodium periodate using Neutravedin HRP by Western blot method.
For assay [2], the target named is T1, Bromodomain-containing protein 4. Put plainly: Binding affinity to Flag tagged phosphorylated human BRD4 phosphorylation-dependent interaction domain (287-530) assessed as formation of cross-linking products at 0.5 uM in absence of sodium periodate using Neutravedin HRP by SDS-PAGE method.
Assay [3] shares this target. The experiment in a line: Binding affinity to modified phosphorylated human BRD4 phosphorylation-dependent interaction domain (287-530) expressed in Sf9 cells assessed as formation of cross-linking products in absence of sodium periodate using Neutravedin HRP by Western blot method.
Assay [4] has the same target. The experiment in a line: Binding affinity to Flag tagged phosphorylated human BRD4 phosphorylation-dependent interaction domain (287-530) assessed as formation of cross-linking products at 0.5 uM in presence of sodium periodate using Neutravedin HRP by SDS-PAGE method.
Assay [5] has the same target. Put plainly: Binding affinity to Flag tagged phosphorylated human BRD4 phosphorylation-dependent interaction domain (287-530) assessed as formation of cross-linking products at 0.1 uM in presence of sodium periodate using Neutravedin HRP by SDS-PAGE method.
For assay [6] the target is unchanged. Put plainly: Binding affinity to modified phosphorylated human BRD4 phosphorylation-dependent interaction domain (598-785) using fluorescein 5-maleimide by fluorescence polarization method.
Assay [7] shares this target. Put plainly: Binding affinity to modified phosphorylated human BRD4 phosphorylation-dependent interaction domain (598-785) expressed in Sf9 cells assessed as red fluorescence by SDS-PAGE method based one-bead binding assay.

`COCCN(CC(=O)N(CCCCN)CC(=O)N(CCCCN)CC(=O)NC(Cc1ccc(O)c(O)c1)C(=O)N[C@H](CCC(=O)NCCCOCCOCCOCCCNC(=O)CCCC[C@@H]1SC[C@@H]2NC(=O)N[C@@H]21)C(N)=O)C(=O)CN(CCCCN)C(=O)CN(CCc1ccc(O)cc1)C(=O)CNCC(C)C` (stereo partly drawn): the result in assay [1] and in assay [4] was Active. The outcome in assay [2], in assay [3] and in assay [5] was inactive.

In assay [6], `COCCN(CC(=O)N(CCCCN)CC(=O)N(CCCCN)CC(N)=O)C(=O)CN(CCCCN)C(=O)CN(CCc1ccc(O)cc1)C(=O)CNCC(C)C` (H-[Nleu][N(4-hydroxyphenethyl)Gly][Nlys][Nme][Nlys][Nlys]-NH2) gave a Kd of 50 µM. For the same compound, in assay [7], the result was inactive.

With `CC(C)CN(CC(=O)N(CCCCN)CC(=O)N(CC(=O)N(CCCCN)CC(=O)N(CCCCN)CC(N)=O)Cc1ccco1)C(=O)CNCCCN1CCCC1=O` (H-[Gly(N-(CH2)3N-pyrrolidone)][Nleu][Nlys][NFurfurylGly][Nlys][Nlys]-NH2), the result in assay [7] was Active.
